Where two headings read alike, the source gives them in different places.
How the values were obtained:
[1] = target: T1, P2X2 receptor (Homo sapiens, UniProt Q9UBL9); details: cited from earlier work
T1 sequence (Q9UBL9 1-471): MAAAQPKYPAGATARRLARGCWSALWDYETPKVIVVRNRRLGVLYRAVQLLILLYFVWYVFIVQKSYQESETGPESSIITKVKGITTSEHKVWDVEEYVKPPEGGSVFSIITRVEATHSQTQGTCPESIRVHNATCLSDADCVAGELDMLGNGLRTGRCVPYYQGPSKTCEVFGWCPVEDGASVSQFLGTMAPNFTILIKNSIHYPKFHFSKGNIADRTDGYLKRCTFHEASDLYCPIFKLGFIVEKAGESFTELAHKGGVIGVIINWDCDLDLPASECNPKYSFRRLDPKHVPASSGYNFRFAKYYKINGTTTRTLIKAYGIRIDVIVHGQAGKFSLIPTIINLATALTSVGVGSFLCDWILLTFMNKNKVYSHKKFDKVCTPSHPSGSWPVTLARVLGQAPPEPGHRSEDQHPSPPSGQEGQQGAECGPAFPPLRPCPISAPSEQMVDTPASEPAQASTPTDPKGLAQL

[2] = system: EV71; assay: Inhibition of EV71 replication in RD cells at 0.1, 1, 10 and 100 μM (CPE, crystal violet); type: cell-based, Enterovirus 71; details: Table 8, antagonists
Procedure, shortened: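 RD cells infected with EV71 and treated at 0.1, 1, 10 and 100 μM were incubated 3˜4 days, crystal violet-stained and inspected microscopically for CPE. Cytotoxicity was checked in parallel by culturing uninfected RD cells with compound for 3˜4 days and examining cell-layer damage.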

[3] = target: T2, P2X4 receptor (Homo sapiens, UniProt Q99571); details: Table 8, antagonists; cited from earlier work
T2 sequence (Q99571 1-388): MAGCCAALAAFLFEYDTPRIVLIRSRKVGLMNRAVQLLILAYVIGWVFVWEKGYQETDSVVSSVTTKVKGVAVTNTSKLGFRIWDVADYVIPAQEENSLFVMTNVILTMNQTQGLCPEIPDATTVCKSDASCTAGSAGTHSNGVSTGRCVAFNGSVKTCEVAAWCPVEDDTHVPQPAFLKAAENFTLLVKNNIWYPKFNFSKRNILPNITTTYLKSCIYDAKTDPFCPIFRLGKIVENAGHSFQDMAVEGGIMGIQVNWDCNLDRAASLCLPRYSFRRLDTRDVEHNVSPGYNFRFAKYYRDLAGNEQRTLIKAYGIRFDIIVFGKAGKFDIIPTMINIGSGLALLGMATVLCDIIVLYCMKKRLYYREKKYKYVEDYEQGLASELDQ

[4] = target: P2X5 receptor (Homo sapiens, UniProt Q93086); details: Table 8, antagonists; cited from earlier work
[5] = target: T3, P2X1 receptor (Homo sapiens, UniProt P51575); details: cited from earlier work
T3 sequence (P51575 1-399): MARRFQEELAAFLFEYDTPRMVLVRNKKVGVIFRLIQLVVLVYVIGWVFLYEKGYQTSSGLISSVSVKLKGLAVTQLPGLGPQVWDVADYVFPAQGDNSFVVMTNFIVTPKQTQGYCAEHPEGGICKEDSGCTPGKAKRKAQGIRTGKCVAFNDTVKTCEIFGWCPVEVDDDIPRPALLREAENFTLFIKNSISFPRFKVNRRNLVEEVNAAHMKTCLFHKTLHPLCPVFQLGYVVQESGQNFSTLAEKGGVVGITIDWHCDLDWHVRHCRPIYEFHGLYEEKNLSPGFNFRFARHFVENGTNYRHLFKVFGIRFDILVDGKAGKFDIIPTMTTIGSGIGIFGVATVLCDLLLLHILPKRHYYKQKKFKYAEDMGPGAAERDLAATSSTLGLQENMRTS

[6] = target: T4, P2X7 receptor (Homo sapiens, UniProt Q99572); details: Table 8, antagonists; cited from earlier work
T4 sequence (Q99572 1-595): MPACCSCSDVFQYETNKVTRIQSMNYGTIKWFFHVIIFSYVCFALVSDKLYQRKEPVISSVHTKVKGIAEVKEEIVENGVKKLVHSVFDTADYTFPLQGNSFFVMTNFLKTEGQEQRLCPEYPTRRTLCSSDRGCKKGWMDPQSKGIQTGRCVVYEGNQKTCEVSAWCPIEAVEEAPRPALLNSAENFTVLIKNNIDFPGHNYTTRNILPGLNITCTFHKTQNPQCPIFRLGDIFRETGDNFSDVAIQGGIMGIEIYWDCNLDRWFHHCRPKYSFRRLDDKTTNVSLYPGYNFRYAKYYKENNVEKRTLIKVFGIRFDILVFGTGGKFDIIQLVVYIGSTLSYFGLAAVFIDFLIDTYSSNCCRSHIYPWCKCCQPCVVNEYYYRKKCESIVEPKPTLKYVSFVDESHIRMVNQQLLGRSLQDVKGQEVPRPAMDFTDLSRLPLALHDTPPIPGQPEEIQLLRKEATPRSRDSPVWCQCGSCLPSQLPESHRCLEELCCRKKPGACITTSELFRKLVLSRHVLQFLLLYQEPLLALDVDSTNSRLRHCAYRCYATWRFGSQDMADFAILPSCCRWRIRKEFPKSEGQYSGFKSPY

P2X5 receptor, sequence (Q93086 whole entry): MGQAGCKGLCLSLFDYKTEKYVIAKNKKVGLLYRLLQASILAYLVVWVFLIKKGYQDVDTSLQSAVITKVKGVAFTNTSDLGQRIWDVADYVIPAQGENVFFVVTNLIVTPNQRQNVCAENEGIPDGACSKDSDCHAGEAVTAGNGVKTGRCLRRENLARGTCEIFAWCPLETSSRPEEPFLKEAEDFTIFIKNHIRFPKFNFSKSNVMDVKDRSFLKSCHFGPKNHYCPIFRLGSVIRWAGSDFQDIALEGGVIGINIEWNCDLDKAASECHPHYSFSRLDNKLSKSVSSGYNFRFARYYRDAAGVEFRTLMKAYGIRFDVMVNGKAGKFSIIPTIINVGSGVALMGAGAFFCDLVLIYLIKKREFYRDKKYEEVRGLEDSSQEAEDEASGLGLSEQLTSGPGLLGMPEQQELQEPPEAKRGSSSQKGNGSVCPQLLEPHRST

Compound | P2X receptors 2 [1] | Inhibition of EV71 replication [2] | P2X receptors 4 [3] | P2X receptors 5 [4] | P2X receptors 1 [5] | P2X receptors 7 [6] | P2X receptors 2 ([1]; Table 8, antagonists) | P2X receptors 1 ([5]; Table 8, antagonists)
Cc1ccc(C(=O)Nc2ccc(S(=O)(=O)O)c3cc(S(=O)(=O)O)cc(S(=O)(=O)O)c23)cc1NC(=O)c1cccc(NC(=O)Nc2cccc(C(=O)Nc3cc(C(=O)Nc4ccc(S(=O)(=O)O)c5cc(S(=O)(=O)O)cc(S(=O)(=O)O)c45)ccc3C)c2)c1 [E02, Suramin Sodium] | + (key: −: no activity; +: inhibitory concentration >300 nM; ++: inhibitory concentration = 10~300 nM; +++: inhibitory concentration <10 nM) | + (+: inhibitory concentration >300 nM) | − | ++ (++: inhibitory concentration = 10~300 nM) | ++ (key: −: no activity; +: inhibitory concentration >300 nM; ++: inhibitory concentration = 10~300 nM; +++: inhibitory concentration <10 nM) | − |  | 
Cc1nc(N=Nc2ccc(S(=O)(=O)O)cc2S(=O)(=O)O)c(COP(=O)(O)O)c(C=O)c1O [PPADS, pyridoxal-phosphate-6-azophenyl-2′, 4′-disulphonic acid] |  | + (+: inhibitory concentration >300 nM) | − | ++ (++: inhibitory concentration = 10~300 nM) |  | + (+: inhibitory concentration >300 nM) | ++ (++: inhibitory concentration = 10~300 nM) | ++ (++: inhibitory concentration = 10~300 nM)

Reference: US9872875B2, “Component and method for treating viral disease” (Institut Pasteur of Shanghai, Chinese Academy of Sciences, priority 2012, dated 2018)
